In the assay the test system is PC-3 multi-cell spheroids, viability. The assay is described as follows: Anticancer human tumor PC-3 cell line growth inhibition [IpAb].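 For all read-outs here: spheroids exposed to compounds for 7 days before readout.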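 For viability, T/C: 100% = DMSO vehicle control wells.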 Conditions: for viability, T/C: stronger effect = lower value. The source says: Combinatorial screen of targeted agents with ipatasertib and abemaciclib in multi-cell type tumor spheroids
A high-throughput screen of multi-cell type tumor spheroids was designed to identify active combinations of targeted small molecules and ipatasertib or abemaciclib. Complex spheroids include a stromal component modeled by human endothelial cells (HUVEC) and fibroblasts modeled by human mesenchymal stem cells (MSCs). The concentration ranges selected for each drug and investigational agent were based upon clinically achievable concentrations if the clinical Cmax of the agent was known.
Compounds. The drugs and investigational agents: ipatasertib (NSC767898), abemaciclib(NSC768073), selumetinib (NSC741078), trametinib (758246), adavosertib (NSC754352), everolimus (NSC733504), sapanisertib (NSC764658), vemurafenib (NSC761431), venetoclax (NSC766270), copanlisib (NSC809693), apelisib (NSC765974), palbociblib (NSC758247), vemurafenib (NSC761431), dabrafenib (NSC764134), ravoxertinib (NSC781343), BMS-387032 (NSC767048), sotorasib (NSC818433), talazoparib (NSC767125) and afursertib (NSC778305), were obtained from the National Cancer Institute (NCI) Developmental Therapeutics Program Chemical Repository. The FDA-approved anticancer drug set is available from the NCI Developmental Therapeutics Program. […] The stock solutions were prepared in dimethyl sulfoxide (DMSO, Sigma-Aldrich, St. Louis, MO, cat. D2650) at 800-fold the tested concentration and stored at -70 degrees C prior to their use. All drugs and investigational agents were tested over a range starting from a high concentration at or near the clinical Cmax and decreasing in half-log increments. If the clinical Cmax for an agent had not been determined, the highest concentration tested was 10 microM.
NCI60 Cell Culture. NCI60 cell lines were obtained from the NCI Developmental Therapeutics Program Tumor Repository. For each lot of cells, the Repository performed Applied Biosystems AmpFLSTR Identifiler testing with PCR amplification to confirm consistency with the published Identifier STR profile for each cell line. Cells were kept in continuous culture for no more than 20 passages. The optimal seeding densities for each of the cell lines at each time point assessed were determined prior to performing the concentration response studies. Briefly, the NCI60 human tumor lines were grown as monolayers in RPMI 1640 medium supplemented with 10% FBS and 2 mmol/L L-glutamine.
An additional 9 lines were from the NCI60 cell line panel including MDA-MB-231 breast carcinoma, MDA-MB-468 breast carcinoma, MCF7 breast carcinoma, Hs578T breast carcinoma, MALME-3M melanoma, SK-MEL-2 melanoma, SK-OV-3 ovarian carcinoma, DU-145 prostate carcinoma, PC-3 prostate carcinoma, all cell lines along with major genetic alterations are listed on Table 2. Pooled donor human umbilical vein endothelial cells (HUVEC, Lonza, cat. CC-2519) and human mesenchymal stem cells (hMSC, Lonza, cat. PT-2501) were purchased from Lonza (Walkersville, MD).
PDMR cell lines were grown in complete medium (DC medium): Dulbecco's modified Eagle's medium (DMEM)/F12 supplemented with 5% fetal bovine serum (FBS), 2 mM L-glutamine, 100 U/mL penicillin and 100 µg/ml streptomycin, 0.4 µg/ml hydrocortisone, 10 ng/ml epidermal growth factor (EGF) recombinant human protein, 24 µg/mL adenine, and 0.1 mg/mL primocin. During culture from frozen stock vials, PDMR cells were cultured in the same medium containing 10 µM Y-27632 (see Table 3). The PDCs were cultured in complete DMEM/F12 media without 10 microM Y-27632 dihydrochloride for at least two passages prior to the screen. The pooled donor HUVEC and hMSC were cultured in endothelial cell growth medium 2 (PromoCell, Heidelberg, Germany, cat. C-22011) and mesenchymal stem cell growth medium 2 (PromoCell, cat. C-28009), respectively. For all experiments, HUVEC and hMSC were used at passages </=5.
[…]

Where “and” joins values, the source holds several entries; their conditions need not be identical. Identical values can stand only once. Some results are limits rather than exact numbers.

As to `CC(C)(C)c1cnc(CSc2cnc(NC(=O)C3CCNCC3)s2)o1` + CC(C)NCC(C(=O)N1CCN(c2ncnc3c2C(C)CC3O)CC1)c1ccc(Cl)cc1, the IC50 (in general, the concentration at which inhibition is half-maximal) by setting is: (curve of first compound, second compound 0.1 µM) 165 nM; (curve of first compound, second compound 0.316 µM) 103 nM; (curve of first compound, second compound 1 µM) less than 9.49 nM; (curve of first compound, second compound 3.16 µM) less than 9.49 nM; (curve of first compound, second compound 10 µM) less than 9.49 nM. For the same compound, the viability, T/C (as a rule, the ratio of treated to control) is 80.2% (second compound 0.1 µM, first compound 0.00949 µM); 98.4% (second compound 0.1 µM, first compound 0.03 µM); 95.3% (second compound 0.1 µM, first compound 0.0949 µM); 4.14% (second compound 0.1 µM, first compound 0.3 µM); 6.3% (second compound 0.1 µM, first compound 0.949 µM); 6.84% (second compound 0.1 µM, first compound 3 µM). Further, the viability, T/C is, setting by setting: (second compound 0.316 µM, first compound 0.00949 µM) 49.9%; (second compound 0.316 µM, first compound 0.03 µM) 46.9%; (second compound 0.316 µM, first compound 0.0949 µM) 64%; (second compound 0.316 µM, first compound 0.3 µM) 3.47%; (second compound 0.316 µM, first compound 0.949 µM) 5.07%; (second compound 0.316 µM, first compound 3 µM) 5.91%. In addition, the viability, T/C (second compound 1 µM, first compound 0.00949 µM) was 31.3%; the viability, T/C (second compound 1 µM, first compound 0.03 µM) was 34.9%; the viability, T/C (second compound 1 µM, first compound 0.0949 µM) was 36.7%; the viability, T/C (second compound 1 µM, first compound 0.3 µM) was 3.39%; the viability, T/C (second compound 1 µM, first compound 0.949 µM) is 4.05%; the viability, T/C (second compound 1 µM, first compound 3 µM) was 5.41%. The viability, T/C is 17.2% (second compound 3.16 µM, first compound 0.00949 µM); 19.3% (second compound 3.16 µM, first compound 0.03 µM); 19.5% (second compound 3.16 µM, first compound 0.0949 µM); 3% (second compound 3.16 µM, first compound 0.3 µM); 3.25% (second compound 3.16 µM, first compound 0.949 µM); 4.47% (second compound 3.16 µM, first compound 3 µM). For the same compound, the viability, T/C (second compound 10 µM, first compound 0.00949 µM) was 14.8%; the viability, T/C (second compound 10 µM, first compound 0.03 µM) was 16.8%; the viability, T/C (second compound 10 µM, first compound 0.0949 µM) is 10.1%; the viability, T/C (second compound 10 µM, first compound 0.3 µM) is 2.76%; the viability, T/C (second compound 10 µM, first compound 0.949 µM) was 3.15%; the viability, T/C (second compound 10 µM, first compound 3 µM) is 3.94%.
Regarding `CCN1CCN(Cc2ccc(Nc3ncc(F)c(-c4cc(F)c5nc(C)n(C(C)C)c5c4)n3)nc2)CC1`, the IC50 (compound alone, run of 44348) was > 1000 nM and 502 nM.
Take `CCCS(=O)(=O)Nc1ccc(F)c(C(=O)c2c[nH]c3ncc(-c4ccc(Cl)cc4)cc23)c1F`: the viability, T/C is 118% and 111% (compound 0.0316 µM); 106% and 99.5% (compound 0.1 µM); 114% and 111% (compound 0.316 µM); 111% and 101% (compound 1 µM); 118% and 112% (compound 3.16 µM); 72.7% and 67.1% (compound 10 µM). In addition, the 50% inhibitory concentration (IC50) (curve of compound) was greater than 10000 nM.

(Values after PubChem BioAssay AID2060327 (Molecular Pharmacology Branch, DTP, NCI, 2025).)
